Biological target: T1, yeast topoisomerase II (yTOPO II) (Saccharomyces cerevisiae, UniProt P06786)
T1 construct: gene TOP2; purified enzyme from the Inspiralis yeast topoisomerase II relaxation assay kit
T1 sequence (P06786 1-1428): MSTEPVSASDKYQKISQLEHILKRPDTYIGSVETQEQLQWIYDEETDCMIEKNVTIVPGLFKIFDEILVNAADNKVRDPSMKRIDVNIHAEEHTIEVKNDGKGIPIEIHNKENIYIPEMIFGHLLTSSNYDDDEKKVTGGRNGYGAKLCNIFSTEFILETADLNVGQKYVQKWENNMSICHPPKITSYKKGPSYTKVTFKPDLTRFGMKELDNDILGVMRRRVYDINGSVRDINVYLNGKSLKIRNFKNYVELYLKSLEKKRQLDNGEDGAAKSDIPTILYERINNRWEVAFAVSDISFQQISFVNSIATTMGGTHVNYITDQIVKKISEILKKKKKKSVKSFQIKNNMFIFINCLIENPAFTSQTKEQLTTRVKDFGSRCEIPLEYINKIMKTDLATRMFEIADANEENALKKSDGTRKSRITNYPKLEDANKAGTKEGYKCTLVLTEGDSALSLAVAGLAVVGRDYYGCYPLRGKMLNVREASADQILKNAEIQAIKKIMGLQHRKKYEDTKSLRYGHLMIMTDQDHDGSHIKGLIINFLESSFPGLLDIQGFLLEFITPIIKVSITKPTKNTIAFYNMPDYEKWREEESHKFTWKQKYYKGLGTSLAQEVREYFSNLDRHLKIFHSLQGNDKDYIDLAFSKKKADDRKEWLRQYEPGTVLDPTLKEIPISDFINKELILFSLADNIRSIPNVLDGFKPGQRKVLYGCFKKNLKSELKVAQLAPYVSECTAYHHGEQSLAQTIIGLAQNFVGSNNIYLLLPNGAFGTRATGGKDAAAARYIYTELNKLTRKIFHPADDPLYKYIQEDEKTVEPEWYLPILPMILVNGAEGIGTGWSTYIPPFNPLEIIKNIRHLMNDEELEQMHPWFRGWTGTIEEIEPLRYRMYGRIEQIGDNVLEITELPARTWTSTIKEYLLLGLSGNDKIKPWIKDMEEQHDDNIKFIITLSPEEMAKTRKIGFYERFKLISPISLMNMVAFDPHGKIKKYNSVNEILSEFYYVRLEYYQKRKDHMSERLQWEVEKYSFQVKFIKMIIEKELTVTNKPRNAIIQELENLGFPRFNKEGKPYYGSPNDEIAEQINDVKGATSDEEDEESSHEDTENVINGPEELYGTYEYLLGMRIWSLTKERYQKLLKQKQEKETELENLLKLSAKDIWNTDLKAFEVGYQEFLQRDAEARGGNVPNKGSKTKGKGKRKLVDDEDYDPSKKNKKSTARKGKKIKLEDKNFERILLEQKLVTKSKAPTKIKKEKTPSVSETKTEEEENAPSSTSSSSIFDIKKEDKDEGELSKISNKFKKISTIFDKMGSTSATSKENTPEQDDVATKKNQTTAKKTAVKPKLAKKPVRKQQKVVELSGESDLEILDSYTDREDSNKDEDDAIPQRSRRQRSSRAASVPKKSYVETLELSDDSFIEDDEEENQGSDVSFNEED
Assay: plasmid DNA relaxation assay, gel densitometry
Format: biochemical
Conditions: for Complete inhibition: supercoiled pBR322 as DNA substrate
Excerpt: plasmid DNA relaxation assay, gel densitometry on yeast topoisomerase II (yTOPO II)

IC50 [µM]	SMILES	further results
	O=c1c2cc3ccccc3cc2oc2c([N+](=O)[O-])ccc(NCCN3CCCC3)c12 [compound 9, 9]	Complete inhibition (highest concentration limited by solubility): > 50 µM
	CCN(CC)CCn1nc2c3c(c([N+](=O)[O-])ccc31)Oc1cc3ccccc3cc1-2 [compound 13, 13]	Complete inhibition: > 150 µM
5.86 ± 1.07	CN1CCN(CCCNc2ccc([N+](=O)[O-])c3oc4cc5ccccc5cc4c(=O)c23)CC1 [compound 42, 1-((3-(4-methylpiperazin-1-yl)propyl)amino)-4-nitro-12H-benzo[b]xanthen-12-one]	
5.36 ± 1.22	O=c1c2cc3ccccc3cc2oc2c([N+](=O)[O-])ccc(NCCN3CCOCC3)c12 [compound 44, 1-((2-morpholinoethyl)amino)-4-nitro-12H-benzo[b]xanthen-12-one]	

Source: paper PMC10363532, “Xanthone synthetic derivatives with high anticandidal activity and positive mycostatic selectivity index values” (Scientific Reports, 2023)
